This is an account of results in US8399705B2, “Alkali metal salt of glutamic acid N,N-diacetic acid, a process to prepare such salt, and the use thereof” (Akzo Nobel N.V., priority 2007, dated 2013).

The data set in a line: Viscosity by Brookfield DV-II viscometer. In kind it is physicochemical. Particulars: 50 wt % product, spindle 34, 10 to 40° C.; compared to Na4 GLDA; data in FIG. 1. Here is the method:
After addition of the KOH (45% sol) and the NaOH (50% sol) solution the products were subjected to evaporation to isolate an alkalimetal salt of glutamic acid-N,N-diacetic acid product having a concentration of 50 wt %.
The viscosity of the alkalimetal salt of glutamic acid-N,N-diacetic acid products prepared in Examples 1a-e was determined using a Brookfield DV-II viscometer with a spindle 34 at a temperature of 10 to 40° C.

On to `O=C([O-])CC[C@@H](C(=O)[O-])N(CC(=O)[O-])CC(=O)[O-].[K+].[K+].[Na+].[Na+]` [Na2K2 GLDA], for which the viscosity result is recorded as “significantly lower viscosity”. On to `O=C(O)CC[C@@H](C(=O)O)N(CC(=O)O)CC(=O)O.[K].[Na].[Na].[Na]` [Na3K GLDA, monopotassium trisodium glutamic acid-N,N-diacetic acid], for which the viscosity result is reported as “significantly lower viscosity”.
